Values joined by “and” are separate entries in the source; they are usually repeats but may differ in a detail not shown here. Identical values can stand only once.
Key:
Myzus persicae = assay: Myzus test (MYZUPE spray treatment); format: in vivo; conditions: for effect (kill of aphids) / pest or weed control at 500 g/ha: 500 g/ha, after 6 days; for pest or weed control at 500 g/ha: read-out: effect (kill of aphids)
Description: Disks of Chinese cabbage (Brassica pekinensis) infested by all stages of the green peach aphid (Myzus persicae) are sprayed with an active compound formulation of the desired concentration.

Tetranychus urticae = assay: Tetranychus test, OP-resistant (TETRUR spray treatment); format: in vivo; conditions: for effect (kill of spider mites) / pest or weed control at 100 g/ha: after 6 days; for pest or weed control at 100 g/ha: read-out: effect (kill of spider mites)
Phaedon cochleariae = assay: Phaedon test (PHAECO spray treatment); conditions: for effect (kill of beetle larvae): 500 g/ha, after 7 days
Spodoptera frugiperda = Spodoptera frugiperda test (SPODFR spray treatment); format: in vivo; conditions: 500 g/ha, after 7 days
human ACC1 [1] = molecular target: T1, human ACC1 (Homo sapiens, UniProt Q13085); assay: Human ACC1 enzyme assay (ADP-Glo); format: biochemical; conditions: individual measurements; read-out: ACC 1 IC50
T1 construct: FLAG (C); made in house; host or cells: baculovirus-infected insect cells (Hi5)

human ACC1 [2] = assay: Human ACC1 enzyme assay (ADP-Glo); format: biochemical; conditions: for Ratio of IC50s ACC2/ACC1 (respective measurement): pairwise, same dilution series
KM12 = assay: Tumour cell proliferation, CellTiter-Glo, 96-hour incubation, KM12; format: cell-based; conditions: Homo sapiens, KM12, 96 h; read-out: KM12 IC50
Procedure: (§1) In accordance with the invention, the substances were tested in cell-based assays for the ability of the substances of inhibiting tumour cell proliferation after a 96-hour incubation with the substance. Cell viability was tested using the CellTiter-Glo® luminescent cell viability assay (Promega). The cells were sown at a density of 2000-5000 cells/well (depending on the cell line) in 100 μl growth medium on 96-well microtiter plates. For each cell line examined, cells were sown on a separate plate to determine the luminescence at t=0 hours and t=96 hours. After overnight incubation at 37° C., the luminescence values for the t=0 samples were determined. The dose plates for the t=96 hours points in time were treated with substances diluted with growth medium. The cells were then incubated at 37° C. for 96 hours, and the luminescence values for the t=96 hours samples were then determined. For data analysis, the t=0 values were subtracted from the t=96 hours values for treated and untreated samples. The differences in luminescence in percent between substance-treated samples and control values were used to determine the growth inhibition in percent.
(§2) The substances were tested in the following cell lines which represent the stated indications in an exemplary manner: […]

PC3 = assay: Tumour cell proliferation, CellTiter-Glo, 96-hour incubation, PC3; format: cell-based; conditions: Homo sapiens, PC-3, 96 h; read-out: PC3 IC50
Procedure: as §1, §2

H460 = assay: Tumour cell proliferation, CellTiter-Glo, 96-hour incubation, H460; format: cell-based; conditions: Homo sapiens, NCI-H460, 96 h; read-out: H460 IC50
Procedure: as §1, §2

MCF7 = assay: Tumour cell proliferation, CellTiter-Glo, 96-hour incubation, MCF7; format: cell-based; conditions: Homo sapiens, MCF7, 96 h; read-out: MCF7 IC50
Procedure: as §1, §2

[3] = Octanol/water distribution coefficient (logP/D), isocratic HPLC method; format: physicochemical; conditions: pH 7.4
Description: Assay for Determining the Octanol/Water Distribution Coefficient (logP/D):
The distribution coefficient octanol/water P or D is a key parameter for estimating membrane penetration and permeability. It is defined as the ratio of the equilibrium concentrations of a substance in the two-phase system octanol/water.
It is usually stated in form of the decadic logarithm (logP or logD).
logP describes the distribution behaviour of a substance exclusively present in its neutral form. logD describes the distribution behaviour of a substance at a certain pH; depending on the ionization constant pKa of the substance, some of the substance may be present in ionic form, and some in neutral form.
The logP/D of the active compounds was determined using an isocratic HPLC method (HPLC=high performance liquid chromatography) (literature: OECD Guideline for Testing of Chemicals No. 117). The method is based on the correlation of the HPLC retention time of the test substance to that of reference substances with known distribution coefficients.
The test substance was employed as a 10 mM solution in DMSO (DMSO=dimethyl sulphoxide). 10 μl of this solution were made up to 100 μl with a methanol/water mixture in a ratio of 7+3.
The nine reference substances were dissolved individually in methanol. 100 μl each of the stock solutions were added to an HPLC vial and mixed with 300 μl of water.
A formamide solution was used to determine the hold-up time. To this end, 7 mg of formamide were dissolved in 10 ml of methanol. 100 μl of this stock solution were mixed with 500 μl of methanol and 200 μl of water.
All solutions were chromatographed using a flow rate of 1.00 ml/min.
Injection Protocol: formamide, references, test substance 1, test substance 2, . . . , formamide, references.
Evaluation of the retention times was carried out in a diode array detector (DAD) at 200-400 nm Via the molecular mass, the identity of the test substance was checked using the downstream mass spectrometer.
The HPLC run was evaluated using the Waters software Masslynx 4.1.
The logP/D values were calculated using the software “POW Determination” (proprietary development).

[4] = Membrane affinity logMA (MA-Transil); format: physicochemical; conditions: buffer pH 7.4
human ACC2 = human ACC2 (Homo sapiens, UniProt O00763); assay: Human ACC2 enzyme assay (ADP-Glo); conditions: ACC 2 IC50, individual measurements
[5] = molecular target: human serum albumin (HSA) (Homo sapiens, UniProt P02768); assay: Protein binding to human serum albumin (HSA-Transil)
[6] = Tetranychus urticae, 144 h, 100 g/ha

Sequence of human ACC2 (O00763 27-2458 limits assumed): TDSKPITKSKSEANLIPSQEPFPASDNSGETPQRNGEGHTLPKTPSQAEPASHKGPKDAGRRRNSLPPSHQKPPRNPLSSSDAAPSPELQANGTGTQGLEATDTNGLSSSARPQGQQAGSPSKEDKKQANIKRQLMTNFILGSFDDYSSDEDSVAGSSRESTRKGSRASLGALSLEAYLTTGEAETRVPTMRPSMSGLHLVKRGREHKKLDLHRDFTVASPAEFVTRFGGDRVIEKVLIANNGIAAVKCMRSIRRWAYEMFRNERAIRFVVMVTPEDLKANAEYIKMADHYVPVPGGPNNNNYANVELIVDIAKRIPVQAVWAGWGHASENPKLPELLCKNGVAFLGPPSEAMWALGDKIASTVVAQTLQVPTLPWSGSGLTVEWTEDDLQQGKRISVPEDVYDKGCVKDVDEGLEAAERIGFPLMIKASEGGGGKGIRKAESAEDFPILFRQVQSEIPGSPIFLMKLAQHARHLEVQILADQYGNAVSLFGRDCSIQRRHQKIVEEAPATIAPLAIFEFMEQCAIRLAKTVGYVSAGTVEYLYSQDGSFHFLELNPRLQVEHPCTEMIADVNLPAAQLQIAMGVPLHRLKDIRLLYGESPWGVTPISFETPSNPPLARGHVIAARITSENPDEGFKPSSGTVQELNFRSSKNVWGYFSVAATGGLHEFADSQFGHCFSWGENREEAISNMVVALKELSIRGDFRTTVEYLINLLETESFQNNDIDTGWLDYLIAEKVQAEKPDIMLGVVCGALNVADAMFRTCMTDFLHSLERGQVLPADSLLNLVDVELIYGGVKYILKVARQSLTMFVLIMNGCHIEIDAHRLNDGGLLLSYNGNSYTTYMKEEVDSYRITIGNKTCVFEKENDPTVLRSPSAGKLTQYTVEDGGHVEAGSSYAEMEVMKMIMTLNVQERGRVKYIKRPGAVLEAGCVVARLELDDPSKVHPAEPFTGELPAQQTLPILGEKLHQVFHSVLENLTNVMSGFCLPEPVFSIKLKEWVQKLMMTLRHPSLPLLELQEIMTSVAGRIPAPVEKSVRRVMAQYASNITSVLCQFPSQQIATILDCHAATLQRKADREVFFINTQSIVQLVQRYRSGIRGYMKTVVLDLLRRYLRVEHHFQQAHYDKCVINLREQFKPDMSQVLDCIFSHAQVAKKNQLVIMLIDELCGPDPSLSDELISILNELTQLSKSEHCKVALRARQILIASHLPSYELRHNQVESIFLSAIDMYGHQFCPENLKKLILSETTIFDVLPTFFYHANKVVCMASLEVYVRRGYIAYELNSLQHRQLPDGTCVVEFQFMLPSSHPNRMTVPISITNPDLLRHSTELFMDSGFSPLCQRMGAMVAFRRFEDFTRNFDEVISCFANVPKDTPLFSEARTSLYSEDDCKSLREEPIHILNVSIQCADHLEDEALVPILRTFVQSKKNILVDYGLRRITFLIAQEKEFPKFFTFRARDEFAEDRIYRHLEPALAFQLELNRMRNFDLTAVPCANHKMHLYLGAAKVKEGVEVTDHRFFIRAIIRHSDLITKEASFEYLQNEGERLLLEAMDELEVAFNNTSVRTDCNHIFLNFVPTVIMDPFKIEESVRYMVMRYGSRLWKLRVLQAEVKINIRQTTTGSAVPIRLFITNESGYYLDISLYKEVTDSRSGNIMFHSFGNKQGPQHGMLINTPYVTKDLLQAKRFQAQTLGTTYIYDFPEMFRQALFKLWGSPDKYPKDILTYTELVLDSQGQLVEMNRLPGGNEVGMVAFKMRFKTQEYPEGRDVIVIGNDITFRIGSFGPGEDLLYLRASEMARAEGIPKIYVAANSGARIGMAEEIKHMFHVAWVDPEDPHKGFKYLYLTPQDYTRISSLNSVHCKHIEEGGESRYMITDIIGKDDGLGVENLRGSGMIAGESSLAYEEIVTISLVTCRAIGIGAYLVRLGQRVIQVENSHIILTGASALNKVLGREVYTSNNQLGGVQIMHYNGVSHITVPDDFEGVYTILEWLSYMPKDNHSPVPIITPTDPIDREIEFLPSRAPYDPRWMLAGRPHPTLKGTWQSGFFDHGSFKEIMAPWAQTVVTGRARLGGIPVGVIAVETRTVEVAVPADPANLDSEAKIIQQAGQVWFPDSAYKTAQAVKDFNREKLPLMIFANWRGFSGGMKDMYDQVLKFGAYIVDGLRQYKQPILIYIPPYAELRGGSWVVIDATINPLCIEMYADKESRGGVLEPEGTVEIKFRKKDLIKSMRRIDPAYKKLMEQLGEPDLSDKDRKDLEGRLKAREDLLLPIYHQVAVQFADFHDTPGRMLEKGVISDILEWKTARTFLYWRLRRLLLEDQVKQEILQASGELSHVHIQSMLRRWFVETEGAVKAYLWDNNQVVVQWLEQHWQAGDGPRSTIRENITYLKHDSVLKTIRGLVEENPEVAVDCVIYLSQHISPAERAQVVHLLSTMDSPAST
Sequence of human serum albumin (HSA) (P02768 25-609): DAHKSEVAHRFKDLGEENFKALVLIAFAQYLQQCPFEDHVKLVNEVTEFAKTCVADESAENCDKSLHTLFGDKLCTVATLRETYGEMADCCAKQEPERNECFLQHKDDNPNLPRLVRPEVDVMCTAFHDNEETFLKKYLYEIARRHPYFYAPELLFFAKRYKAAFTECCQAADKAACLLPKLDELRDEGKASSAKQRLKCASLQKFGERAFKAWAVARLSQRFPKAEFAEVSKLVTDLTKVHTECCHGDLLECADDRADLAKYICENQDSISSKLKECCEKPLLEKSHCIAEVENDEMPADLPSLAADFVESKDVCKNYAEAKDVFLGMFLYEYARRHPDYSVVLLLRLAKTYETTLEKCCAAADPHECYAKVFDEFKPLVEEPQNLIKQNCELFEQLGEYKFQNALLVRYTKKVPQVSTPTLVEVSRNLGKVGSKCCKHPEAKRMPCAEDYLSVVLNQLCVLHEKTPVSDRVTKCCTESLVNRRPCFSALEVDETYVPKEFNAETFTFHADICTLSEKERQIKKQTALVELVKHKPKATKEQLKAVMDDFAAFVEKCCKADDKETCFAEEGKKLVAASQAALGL

## Cc1cc(Br)cc(C)c1C1=C(O)C2(CCC(F)(F)CC2)NC1=O [Example I-1-a-5]
Myzus persicae
  effect (kill of aphids): 100%
Tetranychus urticae; 100 g/ha
  effect (kill of spider mites): 100%
Phaedon cochleariae
  effect (kill of beetle larvae): 100%

## CCOC(=O)OC1=C(c2c(C)cc(C)cc2CC)C(=O)NC12CCC(F)(F)CC2 [Example I-1-c-1]
Myzus persicae; Myzus persicae, 144 h
  pest or weed control at 500 g/ha: 90%
Tetranychus urticae; [6]
  pest or weed control at 100 g/ha: 100%

## Cc1ccc(-c2ccc(F)cc2)c(C)c1C1=C(O)C2(CC=C(F)CC2)NC1=O (stereo not shown) [Example I-1-a-12]
Spodoptera frugiperda
  effect (kill of caterpillars): 100%
Myzus persicae
  effect (kill of aphids): 100%
Tetranychus urticae; 500 g/ha
  effect (kill of spider mites): 100%
Phaedon cochleariae
  effect (kill of beetle larvae): 100%

## Cc1cc(C)c(C2=C(O)C3(CCC(F)(F)CC3)OC2=O)cc1C [Example I-2-a-1]
Myzus persicae; Myzus persicae, 144 h
  pest or weed control at 500 g/ha: 100%

## CCc1cc(C)cc(C)c1C1=C(O)C2(CCC(F)(F)CC2)NC1=O [Example I-1-a-11]
Tetranychus urticae; 100 g/ha
  effect (kill of spider mites): 100%

## Cc1cc(Cl)cc(C)c1C1=C(O)C2(CC=C(F)CC2)NC1=O (stereo not shown) [Example I-1-a-13]
Myzus persicae
  effect (kill of aphids): 100%
Tetranychus urticae; 100 g/ha
  effect (kill of spider mites): 90%
Phaedon cochleariae
  effect (kill of beetle larvae): 100%

## Cc1ccc(-c2ccc(Cl)c(F)c2)cc1C1=C(O)[C@]2(CC[C@H](C(F)(F)F)CC2)NC1=O [V.1-a, (5s,8s)-3-(4′-Chloro-3′-fluoro-4-methylbiphenyl-3-yl)-4-hydroxy-8-(trifluoromethyl)-1-azaspiro[4.5]dec-3-en-2-one, reference compound]
Human ACC1 [1]
  IC50: 67 nM and 59 nM
Human ACC1 [2]
  Selectivity ACC1 vs. ACC2 (mean of the individual measurements ± standard deviation): 9.4 ± 0.8
  Ratio of IC50s ACC2/ACC1 (respective measurement): 8.6 and 10.3
KM12
  IC50: 245 nM
PC3
  IC50: 398 nM
H460
  IC50: 573 nM
MCF7
  IC50: 30 nM
[3]
  chromatographic logP: 2.55
[4]
  logMA: 2.55 (2.4-2.7, n = 2)
Human ACC2
  IC50: 580 nM and 610 nM
[5]
  Kd: 1430 nM

## Cc1ccc(-c2ccc(F)c(F)c2)cc1C1=C(O)C2(CCCCC2)NC1=O [prior art WO 2008/067911 Table 1, reference compound]
Myzus persicae; Myzus persicae, 144 h, read-out: % activity MYZUPE
  inhibition at 20 g/ha: 0%
Tetranychus urticae; Tetranychus urticae, 144 h, read-out: % activity TETRUR
  inhibition at 20 g/ha: 0%
Phaedon cochleariae; Phaedon cochleariae, 168 h, read-out: % activity PHAECO
  inhibition at 20 g/ha: 0%

## Cc1ccc(-c2ccc(F)cc2)cc1C1=C(O)C2(CCC(F)(F)CC2)NC1=O [Example 1-3, 8,8-Difluoro-3-(4′-fluoro-4-methylbiphenyl-3-yl)-4-hydroxy-1-azaspiro[4.5]dec-3-en-2-one]
Human ACC1 [1]
  IC50: 166 nM and 241 nM
Human ACC1 [2]
  Selectivity ACC1 vs. ACC2 (mean of the individual measurements ± standard deviation): >101.8 ± 19.0
  Ratio of IC50s ACC2/ACC1 (respective measurement): >120.8 and >82.8
KM12
  IC50: 578 nM
PC3
  IC50: 476 nM
H460
  IC50: 678 nM
MCF7
  IC50: 209 nM
Spodoptera frugiperda
  effect (kill of caterpillars): 100%
Myzus persicae; Myzus persicae, 144 h
  pest or weed control at 500 g/ha: 90%
Tetranychus urticae; [6]
  pest or weed control at 100 g/ha: 100%
Human ACC2
  IC50: > 20000 nM
Phaedon cochleariae
  effect (kill of beetle larvae): 100%

## Cc1cc(C)c(C2=C(O)C3(CCC(F)(F)CC3)NC2=O)c(C)c1 [Example I-1-a-1]
Spodoptera frugiperda
  effect (kill of caterpillars): 83%
Myzus persicae; Myzus persicae, 144 h
  pest or weed control at 500 g/ha: 100%
Tetranychus urticae; [6]
  pest or weed control at 100 g/ha: 100%

## Cc1cc(-c2ccc(Cl)cc2)cc(C)c1C1=C(O)C2(CCC(F)(F)CC2)NC1=O [Example I-1-a-9]
Myzus persicae; Myzus persicae, 144 h
  pest or weed control at 500 g/ha: 100%
Tetranychus urticae; [6]
  pest or weed control at 100 g/ha: 100%
Phaedon cochleariae
  effect (kill of beetle larvae): 100%

From US20140011853A1, “SUBSTITUTED 3-(BIPHENYL-3-YL)-8,8-DIFLUORO-4-HYDROXY-1-AZASPIRO[4.5]DEC-3-EN-2-ONES FOR THERAPY” (BAYER INTELLECTUAL PROPERTY GMBH, priority 2011, published 2014)
